Reference: USRE47267E1, “Pyridinecarboxamides as CXCR2 modulators” (Syntrix Biosystems, Inc., priority 2009, dated 2019)

Legend:
Aqueous solubility = type: physicochemical
From the text: (§1) The lipid based excipient Gelucire® 44/14 is a self-emulsifying drug delivery system (SEDDS) that is able to solubilize both SX-517 and SX-576 into aqueous solutions via micellular formation. […] Therefore, lipid-based emulsifiers are important excipients for the oral delivery of SX-576.

neutrophil influx [1] = assay: Murine air pouch model of neutrophil chemotaxis (p.o.); type: in vivo, male CD-1 mice; conditions: for total neutrophil counts in the blood: high doses, compared to control animals, data not shown
Protocol: Compounds 1 (SX-517) and 2 (SX-576) were also assayed in an in vivo air-pouch model of inflammation. SX-517 and SX-576 were able to attenuate neutrophil influx in the air-pouch model by about 50% at an oral dose of 0.2 and 0.05 mg/kg, respectively. […] More specifically, the procedure was performed by forming an air pouch on the backs of male CD-1 mice via the subcutaneous injection of air (2 mL). The next day, an additional subcutaneous injection of air (1.5 mL) was performed to reinflate the air pouch. The mice were given either vehicle control (Labrasol®) or test compound solubilized in Labrasol® via oral gavage. After 3 hours, either sterile phosphate buffered saline (PBS, 1 ml) or 2% carrageenan in sterile PBS (1 mL) was injected into the air pouch. After 4 hours, the mice were sedated with ketamine, and sacrificed by cervical dislocation. The exudate in the air pouch was collected by syringe, with an additional 2 mL wash with sterile PBS. The neutrophils were stained with trypan blue and counted on a hemocytometer under 20× magnification.

CXCR2 [2] = molecular target: T1, CXCR2 (Homo sapiens (Human), UniProt P25025); assay: β-arrestin recruitment to CXCR2 (β-galactosidase fragment complementation, DiscoveRx); conditions: for inhibition of β-arrestin recruitment following CXCR2 activation with IL-8: FIG. 2; for activity on β-arrestin complexation with CXCR2 in the absence of IL8: FIG. 3
[3] = Crossover pharmacokinetic experiment in Beagle dogs; type: in vivo; conditions: for plasma level: dosed to Beagle dogs without excipient, data not shown
Protocol: In this study, male Beagle dogs (n=5) were dosed intravenously on study day 1 with SX-576 in dimethylformamide/PEG400/saline (40:40:20) at a dose level of 5 mg/kg and a dose volume of 0.5 mL/kg. Blood samples were taken predose, and at time points 30, 60, 90, 120, 180, 360, 540 and 720 minutes. The blood was collected in tubes containing K2EDTA as an anticoagulant, and the tubes were centrifuged and the plasma fractions collected and frozen. After a one-week washout period, the same Beagle dogs were dosed orally with SX-576 in lipid based excipient Gelucire® 44/14 (Gattefosse) at a dose level of 5 mg/kg. Blood samples were then taken and plasma fractions collected as previously described. Prior to analysis, the plasma samples were thawed and diluted 1:3 into acetonitrile containing 1 μM of compound 153 as an internal standard. The resulting samples were centrifuged and the supernatant analyzed by LC-MS monitoring in multiple reaction monitoring mode. The samples were run concomitantly with a calibration curve of SX-576 in the same internal standard solution.
as §1

CXCR2 [4] = molecular target: T1, CXCR2; assay: In vitro agonist activity: intracellular calcium release in human neutrophils in the absence of GROα; type: cell-based
Protocol: This assay measures intracellular calcium release via fluorescence as an indication of CXCR2 receptor activation by the physiologic agonist GROα. The assay is a Ca^2+ mobilization assay that measures changes in intracellular Ca^2+ with a FlexStation II scanning fluorometer using a FLIPR-3 Calcium Assay Kit (Molecular Devices, Sunnyvale, Calif.). The procedure is as follows: • 1. Human neutrophils were suspended in HBSS^− (without Ca^2+ and Mg^2+) containing 10 mM HEPES and FLIPR Calcium 3 dye (3.1×10^7 cells in total volume 1.7 mL). • 2. […] As controls, 2 μL of DMSO (1% final concentration) were added to other 2 tubes. • 3. Cells were incubated for 30 min at 37° C. • 4. […] The cell suspension was aliquoted into a 96-well Reading Plate (Corning) in a volume of 90 μL (10^5 cells/well). […] After 15 sec of reading the basal level of fluorescence using the FlexStation II instrument, 10 μL of GROα or HBSS^− were automatically transferred from the Compound Plate into the Reading Plate (final concentration of GROα was 25 nM). • 8. Changes in fluorescence were monitored (λex=485 nm, λem=525 nm) every 5 s for 240 to 500 s at room temperature. • 9. The maximum change in fluorescence, expressed in arbitrary units over baseline (Max-Min) was used to determine the GROα response.
(§2) The maximum change in fluorescence, expressed in arbitrary units over baseline (Max-Min), was used to determine the GROα response.

[5] = system: ozone-induced pulmonary inflammation; assay: Ozone rat model of pulmonary inflammation; type: in vivo, Sprague-Dawley rats; conditions: 1 mg/kg i.v. at t=0, 5, 9 h, 1 ppm ozone 4 h
Protocol: Activity in this model of pulmonary inflammation would provide direct relevance towards the treatment of a number of pulmonary inflammatory diseases, including chronic obstructive pulmonary disease (COPD) and bronchopulmonary dysplasia (BPD). In this experiment, Sprague-Dawley rats (n=4 per cohort) were dosed intravenously at t=0 with either vehicle (negative and positive groups, dimethylformamide/PEG400/saline, 40:40:20) or SX-576 (1 mg/kg). The rats were then placed in air (negative group) or 1 ppm ozone (positive and SX-576 groups) for 4 hours. The rats were dosed again at t=5 and 9 hours. The rats were then sacrificed at t=24 hours, and the bronchoalveolar lavage fluid (BALF) was collected. The cells were spun down, stained with Wright-Giemsa and counted. In the negative groups, no neutrophils were observed when stained. As a measure of lung leakage/damage, protein levels were quantified in BALF by Bradford protein assay analysis.

neutrophil influx [6] = assay: Murine air pouch model of neutrophil chemotaxis (i.v.); type: in vivo, male CD-1 mice; conditions: all tested dose levels 0.02, 0.05, 0.2 and 1.0 mg/kg, FIG. 6
Protocol: The procedure was performed by forming an air pouch on the backs of male CD-1 mice via the subcutaneous injection of air (2 mL). The next day, an additional subcutaneous injection of air (1.5 mL) was performed to reinflate the air pouch. The mice were given either vehicle control (dimethylformamide/PEG400/saline) or test compound solubilized in vehicle via tail vein injection. After 30 minutes, either sterile phosphate buffered saline (PBS, 1 ml) or 2% carrageenan in sterile PBS (1 mL) was injected into the air pouch. After 4 hours, the mice were sedated with ketamine, and sacrificed by cervical dislocation. The exudate in the air pouch was collected by syringe, with an additional 2 mL wash with sterile PBS. The neutrophils were stained with trypan blue and counted on a hemocytometer under 20× magnification.

CXCR2 [7] = molecular target: T1, CXCR2; assay: Wash-resistant inhibition of GROα-mediated intracellular calcium release in isolated human neutrophils; type: cell-based; conditions: 0.4, 2 and 10 μM, 30 min incubation, washed; time points out to 6 hours; FIG. 1
Protocol: The cells were washed and resuspended in RPMI/2% serum (serum was obtained from the same donor as the neutrophils). The concentration of the neutrophil suspension was 10^7 cells/mL. […] The neutrophils were washed and resuspended in RPMI/2% serum and maintained at room temperature. At 30 minutes before each time point, a 56.25 μL aliquot of the neutrophils were removed and loaded for 30 minutes at room temperature in the dark with FLIPR-3 reagent (262.5 μL per tube).

CXCR2 [8] = molecular target: T1, CXCR2; assay: Inhibition of GROα-mediated intracellular calcium release in human neutrophils (FLIPR-3 Ca2+ mobilization assay); type: cell-based; conditions: GROα 25 nM
Protocol: This assay measures intracellular calcium release via fluorescence as an indication of CXCR2 receptor activation by the physiologic agonist GROα. The assay is a Ca^2+ mobilization assay that measures changes in intracellular Ca^2+ with a FlexStation II scanning fluorometer using a FLIPR-3 Calcium Assay Kit (Molecular Devices, Sunnyvale, Calif.). The procedure is as follows: • 1. Human neutrophils were suspended in HBSS^− (without Ca^2+ and Mg^2+) containing 10 mM HEPES and FLIPR Calcium 3 dye (3.1×10^7 cells in total volume 1.7 mL). • 2. […] As controls, 2 μL of DMSO (1% final concentration) were added to other 2 tubes. • 3. Cells were incubated for 30 min at 37° C. • 4. After dye loading, tubes were centrifuged at 6,000 rpm for 1 min, supernatant was removed and cell pellet was re-suspended in 200 μL of HBSS^+ (with Ca^+ and Mg^2+) containing 10 mM HEPES. • 5. The compound or DMSO (control) was added again at the same concentrations that were used during cell loading. • 6. The cell suspension was aliquoted into a 96-well Reading Plate (Corning) in a volume of 90 μL (10^5 cells/well). The Compound Plate contained physiologic agonist (GROα in HBSS^−) or HBSS^− (control). • 7. […] The maximum change in fluorescence, expressed in arbitrary units over baseline (Max-Min) was used to determine the GROα response.
Briefly, human neutrophils were suspended in HBSS (without Ca^2+ and Mg^2+) containing 10 mM HEPES and FLIPR Calcium 3 dye (3.1×10^7 cells in total volume 1.7 mL). […] As controls, 2 μL of DMSO (1% final concentration) were added to 2 other tubes. Cells were incubated for 30 min at 37° C. After dye loading, tubes were centrifuged at 6,000 rpm for 1 min, supernatant was removed and the cell pellet was re-suspended in 200 μL of HBSS^+ (with Ca^2+ and Mg^2+) containing 10 mM HEPES. […] The cell suspension was aliquoted into a 96-well Reading Plate (Corning) in a volume of 90 μL (10^5 cells/well). […]
as §2

T1 sequence (P25025 whole entry, the tested form may be a part): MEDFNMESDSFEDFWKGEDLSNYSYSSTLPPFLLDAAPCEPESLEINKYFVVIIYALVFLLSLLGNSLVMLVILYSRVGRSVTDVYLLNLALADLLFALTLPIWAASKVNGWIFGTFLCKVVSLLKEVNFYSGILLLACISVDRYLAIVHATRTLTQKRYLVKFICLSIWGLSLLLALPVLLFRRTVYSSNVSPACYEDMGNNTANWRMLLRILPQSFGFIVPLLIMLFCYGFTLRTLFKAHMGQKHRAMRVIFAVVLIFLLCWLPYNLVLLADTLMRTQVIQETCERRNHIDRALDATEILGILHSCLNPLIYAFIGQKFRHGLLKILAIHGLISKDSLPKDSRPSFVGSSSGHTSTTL

Row | SMILES | aqueous solubility (Aqueous solubility) | total neutrophil counts in the blood (neutrophil influx [1]) | inhibition of β-arrestin recruitment following CXCR2 activation with IL-8 (CXCR2 [2]) | activity on β-arrestin complexation with CXCR2 in the absence of IL8 (CXCR2 [2]) | plasma level [3] | IC50 (CXCR2 [8]) | other results
1 | O=C(Nc1ccc(F)cc1)c1ccc(SCc2ccccc2B(O)O)nc1 [Compound 1, 6-(2-borono-2-yl-benzylsulfanyl)-N-(4-fluoro-phenyl)-nicotinamide] | poor | not significantly changed | inhibited arrestin recruitment | acted as inverse agonists | undetected | – | neutrophil influx (neutrophil influx [1]; 0.005 and 0.2 p.o., FIG. 4): decrease of neutrophil influx; neutrophil influx (neutrophil influx [1]; doses in excess of 10 mg/kg p.o., FIG. 4): increase in neutrophil influx; agonist activity with respect to the release of intracellular calcium (CXCR2 [4]; listed as 1 (SX-517)): did not show agonist activity; agonist activity with respect to the release of intracellular calcium (CXCR2 [4]; listed as SX-517): did not exhibit any agonist activity
2 | O=C(Nc1ccc(F)cc1)c1ccc(SCc2cc(OC(F)(F)F)ccc2B(O)O)nc1 [Compound 2, 6-(2-boronic acid-5-trifluoromethoxy-benzylsulfanyl)-N-(4-fluoro-phenyl)-nicotinamide] | poor | not significantly changed | inhibited arrestin recruitment | acted as inverse agonists | undetected | – | neutrophil influx (neutrophil influx [1]; 0.05 mg/kg p.o., FIG. 5): decrease of neutrophil influx; neutrophil influx (neutrophil influx [1]; doses in excess of 1 mg/kg p.o., FIG. 5): increase in neutrophil influx; influx of neutrophils into the lungs ([5]; BALF at 24 h, FIG. 7a): significantly decreased; influx of macrophages into the lungs ([5]; BALF at 24 h, FIG. 7b): significantly decreased; ozone-induced lung damage (protein levels in the BALF) ([5]; FIG. 7c): protected against ozone-induced lung damage; neutrophil influx (neutrophil influx [6]): significantly attenuate neutrophil influx; bioavailability following oral administration ([3]; Beagle dogs, 5 mg/kg oral in Gelucire 44/14): improved; inhibition of GROα mediated intracellular calcium release after inhibitor washout (CXCR2 [7]): dose-dependent and wash-resistant inhibition
3 | COc1ccc(B(O)O)c(CSc2ccc(C(=O)Nc3ccc(F)cc3)cn2)c1 [Compound 4, 6-(2-boronic acid-5-methoxy-benzylsulfanyl)-N-(4-fluoro-phenyl)-nicotinamide] | – | – | – | – | – | 79 nM | –
4 | Cc1nn(-c2ccccc2)nc1CSc1ccc(C(=O)Nc2ccc(F)cc2)cn1 [Compound 48] | – | – | – | – | – | > 5000 nM | –
5 | O=C(Nc1ccc(F)cc1)c1ccc(SC2CCOC2=O)nc1 (stereo not shown) [Compound 81] | – | – | – | – | – | > 5000 nM | –
